Measured values from US6465523B1, “4-substituted-3-substituted-amino-cyclobut-3-ene-1,2-diones and analogs thereof as novel potassium channel openers” (American Home Products, priority 1998, dated 2002).

Legend:
Bladder Tissue = assay: Smooth muscle (bladder) relaxing activity: inhibition of KCl-enhanced contractile activity of isolated rat bladder strips; assay type: cell-based, Sprague-Dawley rats; conditions: for Bladder Tissue, I = percent inhibition of contractile activity / IC50 / inhibition at 30 µM: rat bladder strips, additional 15 mM KCl; for Bladder Tissue, I = percent inhibition of contractile activity / inhibition at 30 µM: percent inhibition at 30 μM (footnote *); for IC50: 50% inhibition of pre-drug contractile activity; for Ratio Aorta IC50 / Bladder IC50: selectivity for bladder over aorta tissue, rat; for inhibition at 30 µM: read-out: Bladder Tissue, I = percent inhibition of contractile activity
Protocol: The smooth muscle (bladder) relaxing activity of the compounds of this invention was established in accordance with standard pharmaceutically accepted test procedures with representative compounds as follows:
Sprague-Dawley rats (150-200 g) are rendered unconscious by CO2 asphyxiation and then euthanized by cervical dislocation. The bladder is removed into warm (37° C.) physiological salt solution (PSS) of the following composition (mM): NaCl, 118.4; KCl, 4.7; CaCl2, 2.5; […]; NaHCO3, 24.9; KH2PO4, 1.2; glucose, 11.1; EDTA, 0.023; gassed with […]; pH 7.4. The bladder is opened and then cut into strips 1-2 mm in width and 7-10 mm in length. The strips are subsequently suspended in a 10 mL tissue bath under an initial resting tension of 1.5 g. The strips are held in place by two surgical clips one of which is attached to a fixed hook while the other is attached to an isometric force transducer. […] The carbachol is then washed out and the tissue allowed to relax to its resting level of activity. Following a further 30 min. period of recovery an additional 15 mM KCl are introduced into the tissue bath. This increase in KCl concentration results in a large increase in the amplitude of spontaneous contractions (and initiation of contractions in previously quiescent strips) superimposed upon a small increase in basal tone. Following stabilization of this enhanced level .of contractile activity, incremental increases in the concentration of test compound or vehicle are introduced into the tissue bath. Contractile activity is measured for each compoundor vehicle concentration during the last minute of a 30 minute challenge.
The isometric force developed by the bladder strips is measured using a […] to elicit 50% inhibition of pre-drug contractile activity (IC50 concentration) and is calculated from this concentra-tion-response curve.

Aorta Tissue = assay: Smooth muscle (aorta) relaxing activity: inhibition of KCl-evoked contracture of isolated rat thoracic aorta rings; assay type: cell-based, Sprague-Dawley rats; conditions: 30-35 mM KCl contracture, 50% inhibition of pre-drug contractile force
Source text: The smooth muscle (aorta) relaxing activity of the compounds of this invention was established in accordance with standard pharmaceutically accepted test procedures with representative compounds as follows:
Male Sprague-Dawley rats (150-200 g) are rendered unconscious by CO2 asphyxiation and then euthanized by cervical dislocation. The thoracic aorta is removed into warm (37 deg.C.) physiological salt solution (PSS) of the following composition (mM): NaCl; 118.4; KCl, 4.7; CaCl2, 2.5; MgSO4.7H2O, 1.2; NaHCO3, 24.9; KH2PO4, 1.2; glucose, 11.1; EDTA, 0.023; gassed with 95% O2/5% CO2; pH 7.4. The aorta is cleaned of fat and loose adventitia and cut into rings 3-4 mm in width. The rings are subsequently suspended between two stainless steel wire tissue holders in a 10 ml tissue bath. One wire tissue holder is attached to a fixed hook while the other is attached to an isometric force transducer. Resting tension is set at 1 g. The tissues are to recover for a period of 60 mins. prior to beginning the experiment. Tissues are challenged with PSS containing 25 mM KCl to elicit a contracture. The tissues are then washed repeatedly with fresh PSS over a period of 30 mins. and allowed to recover to baseline tension. PSS containing 30-35 mM KCl is then introduced into the tissue bath to evoke a contracture that is allowed to stabilize for not less than 45 minutes. (Other stimuli such as norepine-phrine, PGF2a, histamine, angiotensin II, endothelin or PSS containing 80 mM KCl may also be used to evoke a contracture as necessary). Increasing concentrations of test compound or vehicle are then added to the tissue bath in a cumulative fashion.
Isometric force development by the aortic rings is measured using a force transducer and recorded on a polygraph. The percentage inhibition of contractile force evoked by each concentration of a given test compound is used to generate a concentration-response curve. The concentration of test compound required to elicit 50% inhibition of pre-drug contractile force (IC50 concentration) is calculated from this dose-response curve. (Log concentration versus response curves are approximately linear between 20% and 80% of the maximum response. As such, the IC50 concentration of the drug is determined by linear regression analysis (where x=log concentration and y=% inhibition) of the data points in the 20% to 80% region of the curve]. The maximum percentage inhibition of contractile force evoked by a test compound is also recorded for concentrations of test compound < or = to 30 μM. Data collected from 2 animals are averaged for primary screens.

Compound | IC50 (Bladder Tissue) | melting point | inhibition at 30 µM (Bladder Tissue) | further results
3-(1,1-Dimethyl-2-phenyl-ethylamino)-4-(3-methoxy-phenyl)-cyclobut-3-ene-1,2-dione [Example 25] | – | – | – | Bladder Tissue, I = percent inhibition of contractile activity (Bladder Tissue): 1 = 30.35%
COc1ccc(-c2c(NC(C)(C)Cc3ccccc3)c(=O)c2=O)cc1 [Example 1, 3-(1,1-Dimethyl-2-phenyl-ethylamino)-4-(4-methoxy-phenyl)-cyclobut-3-ene-1,2-dione] | 1.2 µM | 150 to 151 °C | – | Ratio Aorta IC50 / Bladder IC50 (Bladder Tissue): 2.71; IC50 (Aorta Tissue): 3.25 ± 0.35 µM
CCC(C)(C)Nc1c(-c2ccc(OC)cc2)c(=O)c1=O [Example 2, 3-(1,1-Dimethyl-propylamino)-4-(4-methoxy-phenyl)-cyclobut-3-ene-1,2-dione] | 2.5 µM | 133 to 135 °C | – | Ratio Aorta IC50 / Bladder IC50 (Bladder Tissue): 15.1; IC50 (Aorta Tissue): 37.6 ± 6.05 µM
COc1ccc(-c2c(N(C)C(C)C)c(=O)c2=O)cc1 [Example 3, 3-(Isopropyl-methyl-amino)-4-(4-methoxy-phenyl)-cyclobut-3-ene-1,2-dione] | 12 µM | 109 to 115 °C | – | Ratio Aorta IC50 / Bladder IC50 (Bladder Tissue): 3.85; IC50 (Aorta Tissue): 46.2 ± 7.8 µM
COc1ccc(-c2c(NC(C)C(C)(C)C)c(=O)c2=O)cc1 (stereo not drawn) [Example 4, 3-(4-Methoxy-phenyl)-4-(1,2,2-trimethyl-propylamino)-cyclobut-3-ene-1,2-dione] | 9.51 µM | 179 to 181 °C | – | Ratio Aorta IC50 / Bladder IC50 (Bladder Tissue): 2.56; IC50 (Aorta Tissue): 24.2 ± 6.3 µM
COc1ccc(-c2c(NCCc3cccc(C(F)(F)F)c3)c(=O)c2=O)cc1 [Example 5, 3-(4-Methoxy-phenyl)-4-[2-(3-trifluoromethyl-phenyl)-ethylamino]-cyclobut-3-ene-1,2-dione] | – | 220.2 to 222.3 °C | 9.75% | –
COc1ccc(-c2c(N[C@H](C)c3ccccc3)c(=O)c2=O)cc1 [Example 6, (−)-3-(4-Methoxy-phenyl)-4-((R)-1-phenyl-ethylamino)-cyclobut-3-ene-1,2-dione] | 26.9 µM | 158.7 to 160.1 °C | – | –
COc1ccc(-c2c(NCC(C)c3ccccc3)c(=O)c2=O)cc1 (stereo not drawn) [Example 7, 3-(4-Methoxy-phenyl)-4-(2-phenyl-propylamino)-cyclobut-3-ene-1,2-dione] | – | 215.4 to 216.2 °C | 7.4% | –
CC(Nc1c(-c2ccc(C#N)cc2)c(=O)c1=O)C(C)(C)C (stereo not drawn) [Example 9, 4-[3,4-Dioxo-2-(1,2,2-trimethyl-propylamino)-cyclobut-1-enyl]benzonitrile] | – | – | 27.2% | –
COc1ccc(Cc2c(NC(C)C(C)(C)C)c(=O)c2=O)cc1.COc1ccc(Cc2c(NC(C)C(C)(C)C)c(=O)c2=O)cc1.COc1ccc(Cc2c(NC(C)C(C)(C)C)c(=O)c2=O)cc1.COc1ccc(Cc2c(NC(C)C(C)(C)C)c(=O)c2=O)cc1.O (stereo not drawn) [Example 23, 3-(4-Methoxy-benzyl)-4-(1,2,2-trimethyl-propylamino)-cyclobut-3-ene-1,2-dione One-quarter Hydrate] | – | – | – | Bladder Tissue, I = percent inhibition of contractile activity (Bladder Tissue): 1 = 10.2%
CC(Nc1c(/C=C/c2ccc(Br)cc2)c(=O)c1=O)C(C)(C)C (stereo not drawn) [Example 26, 3-[(E)-2-(4-Bromo-phenyl)-vinyl]-4-(1,2,2-trimethyl-propylamino)-cyclobut-3-ene-1,2-dione] | – | – | 15.6% | –

Now from value to compound, other results behind:

IC50 (Bladder Tissue) | melting point | Compound | inhibition at 30 µM (Bladder Tissue) | further results
11.2 µM | 258.1 to 260.2 °C | COc1ccc(-c2c(NCCc3ccc(C(C)(C)C)cc3)c(=O)c2=O)cc1 [Example 8, 3-[2-(4-tert-Butyl-phenyl)-ethylamino]-4-(4-methoxy-phenyl)-cyclobut-3-ene-1,2-dione] | – | –
15.6 µM | – | CC(Nc1c(-c2ccc(C(F)(F)F)cc2)c(=O)c1=O)C(C)(C)C (stereo not drawn) [Example 10, 3-(4-Trifluoromethyl-phenyl)-4-(1,2,2-trimethyl-propylamino)-cyclobut-3-ene-1,2-dione] | – | –
– | 115.4 to 119 °C (dec.) | CCC(C)(C)Nc1c(-c2ccc(C(F)(F)F)cc2)c(=O)c1=O [Example 11, 4-(4Trifluoromethyl-phenyl)-3-(1,1-dimethyl-propylamino)-cyclobut-3-ene-1,2-dione] | 34.2% | –
– | 152 to 155.9 °C (dec.) | CCC(C)(C)Nc1c(-c2cccnc2)c(=O)c1=O.Cl [Example 12, 3-(1,1-Dimethyl-propylamino)-4-(pyridin-3-yl)-cyclobut-3-ene-1,2-dione Hydrochloride] | 26% | –
16.2 µM | – | CC(=O)C(c1ccc(C(F)(F)F)cc1)c1c(NC(C)C(C)(C)C)c(=O)c1=O (stereo not drawn) [Example 21, 3-[2-Oxo-1-(4-trifluoromethyl-phenyl)-propyl]-4-(1,2,2-trimethyl-propylamino)-cyclobut-3-ene-1,2-dione] | – | –
25.7 µM | 210.6 to 211.3 °C | CC(Nc1c(-c2ccc(Br)cc2)c(=O)c1=O)C(C)(C)C (stereo not drawn) [Example 22, 3-(4-Bromo-phenyl)-4-(1,2,2-trimethyl-propylamino)-cyclobut-3-ene-1,2-dione] | – | –
15.9 µM | – | COc1ccc(C(C(C)=O)c2c(N(C(=O)OC(C)(C)C)C(C)C(C)(C)C)c(=O)c2=O)cc1 (stereo not drawn) [Example 24] | – | –
2.94 µM | 240.2 to 241 °C | CC(Nc1c(/C=C/c2ccc(C#N)cc2)c(=O)c1=O)C(C)(C)C (stereo not drawn) [Example 27, 4-{(E)-2-[3,4-Dioxo-2-(1,2,2-trimethyl-propylamino)-cyclobut-1-enyl]-vinyl}-benzonitrile] | – | –
